What was measured:
[1] = biological target: T1, recombinant sedoheptulose kinase (CARKL) (Homo sapiens, UniProt Q9UHJ6); assay: Sedoheptulose kinase assay (ADP Quest, ADP formation); type: biochemical; settings: constant amount of recombinant CARKL, constant ATP (150 μM), increased doses of sedoheptulose, FIG. 4A
T1 construct: made in house; host or cells: E. coli
T1 sequence (Q9UHJ6 1-478): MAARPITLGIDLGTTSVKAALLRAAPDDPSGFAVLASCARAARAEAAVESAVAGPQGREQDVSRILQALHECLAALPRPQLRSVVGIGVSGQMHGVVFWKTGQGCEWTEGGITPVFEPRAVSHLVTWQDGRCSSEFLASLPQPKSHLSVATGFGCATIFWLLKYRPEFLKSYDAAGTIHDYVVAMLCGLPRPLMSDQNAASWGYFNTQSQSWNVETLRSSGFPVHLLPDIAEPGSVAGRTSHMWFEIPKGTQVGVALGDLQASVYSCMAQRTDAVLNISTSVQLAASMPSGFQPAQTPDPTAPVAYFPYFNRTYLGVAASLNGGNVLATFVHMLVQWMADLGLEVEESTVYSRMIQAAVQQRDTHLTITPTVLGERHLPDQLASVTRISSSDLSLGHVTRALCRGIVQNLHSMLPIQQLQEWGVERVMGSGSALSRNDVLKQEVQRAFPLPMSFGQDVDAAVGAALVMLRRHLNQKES
Method: FIG. 4: In an in vitro kinase assay, which employs ADP formation as activity readout, the sedoheptulose turnover rate at constant ATP (150 μM) concentration was enhanced either by (A) increasing sedoheptulose concentration or (B) by increasing the amount of the rate-limiting enzyme sedoheptulose kinase (CARKL). (C-E) Hepatocytes from wilt-type (WT) and sedoheptulose kinase CARKL overexpressing mice were pre-cultured for two days in GFS containing media before basal (C) ECAR and (D) OCR was recorded of these cells. (E) Hepatocytes from both genetic lineages (CARKL and WT controls) were cultivated in GF or GFS containing media and then pre-starved (no-carbohydrates) for 1 h to measure glucose-induced ECAR after the addition of glucose to reach a final concentration of 1 g/L in the culture media mean+/−S.D., n=7-11). As metabolic in vivo indicators (F) the respiratory quotient (RQ) and (G) energy expenditure (EE, kcal/day/kg^0.75) per activity by indirect calorimetry were determined and compared CARKL to wild-type (WT) littermates during day (8 am to 4 pm) and night (8 pm to 4 am). Data represent mean values, n=3, +/−SD. […] Blood glucose was measured before the injection (control) and 15, 30, 45 and 60 minutes after injection and graphed as relative value in % of control. […]

[2] = system: primary bone marrow derived macrophages; assay: Bone marrow derived macrophages, basal cytokine mRNA (RT-PCR) and secretion (ELISA); type: cell-based, mouse
Method: (§1) FIG. 3: (A-E) Primary human adipocytes were obtained by differentiation of the stromal vascular cell fraction in the presence of glucose and fructose (GF, 1.5 g/L of each sugar; total carbohydrates 3 g/L) or sedoheptulose supplemented media, which was termed GFS (1 g/L of each sugar; total carbohydrates 3 g/L), for eight days. Subsequently mRNA levels of (A) CARKL, (B) adiponectin and (C) uncoupling protein 1 (UCP-1) was assessed by RT-PCR and compared between the groups. (D) Cellular oxygen consumption rates (OCR) and (E) extracellular acidification rates (ECAR) of adipocytes were recorded in the presence of indicated carbohydrate-mix (mean+/−S.D., n=9-11). (F) Tumor necrosis factor alpha (TNFa) and (G) interleukin 6 (IL-6) mRNA expression levels of mature murine adipocytes cultivated for three days in cell culture media containing either GF or GFS carbohydrate mix, or (H) IL-6 expression in primary murine hepatocytes, as well as (I) TNFa and (J) IL-6 mRNA levels in primary bone marrow derived macrophages, both cell types were pre-cultured for two days in GF or GFS media, were compared between respective groups. Secretion of (K) TNFa and (L) IL-6 cytokines over the period of two days was measured by ELISA in the supernatant of bone marrow derived macrophages. LPS-induced (100 ng/ml) secretion of (M) TNFa 2 hrs after activation and (N) IL-6 6 hrs after activation in the respective media by macrophages was also measured by ELISA. Data represents mean+/−S.D., n=3)
Mouse bones were isolated from male wild-type and CARKL overexpressing mice and bone marrow wash flushed, washed and cleared from redblood cells by lysis, and subsequently differentiated in DMEM containing 25 mM glucose and 20 ng/ml M-CSF. After 4 days, cells for osteoclast differentiation were harvested and seeded in corning osteo assay plates with differentiation media (see below), and for primary bone marrow derived macrophages (BMDM) the medium was renewed and further supplemented with M-SCF for two days. Differentiated BMDM were then seeded in respective DMEM-media containing 10% FBS and indicated carbohydrate mixes at 3 g/L (glucose and fructose (GF), or glucose, fructose and sedoheptulose (GFS)) at least two days before experiments were performed.
(§2) Briefly, total RNA was extracted and reverse-transcribed using commercial kits (QIAGEN, Applied Biosystems). Quantitative real-time PCRs were performed on an AbiPRISM 7900HT real-time cycler using iTaq SYBR Green Supermix with ROX (BioRad) to measure CARKL, adiponectin, UCP-1, TNFa, IL-6, MCP-1, and beta-actin expression as previously described (Haschemi et al., Cell Metab. 15 (2012), 813-826). Expression of target gene was normalized to beta-actin expression. Relative expression of target gene was calculated by the delta-delta CT method.

[3] = system: primary murine hepatocytes; assay: Primary murine hepatocyte culture, IL-6 mRNA by RT-PCR; type: cell-based, mouse; settings: pre-cultured two days in GFS vs GF media, FIG. 3H
Method: Hepatocytes were isolated from male wild-type and CARKL overexpressing mice after the mice were sacrificed by hepatic in situ collagenase perfusion. After perfusion, the liver was quickly removed, minced, and filtered through a cell strainer (Fisher Scientific, Inc) into a 50 ml sterile tube. Hepatocytes in the resulting filtrate were purified from the nonparenchymal cells by centrifugation steps. The isolated hepatocytes were seeded into plates at a concentration of 0.25×10^6/ml in respective DMEM-media containing 10% FBS and indicated carbohydrate mixes at 3 g/L (glucose and fructose (GF), or glucose, fructose and sedoheptulose (GFS)) at least two days before experiments were performed.
as §2

[4] = system: LPS-induced activated primary macrophages; assay: LPS-induced cytokine secretion by bone marrow derived macrophages (ELISA); type: cell-based, mouse; settings: LPS 100 ng/ml, GFS vs GF media
Method: as §1, with “(F) Tumor necrosis factor alpha (TNFa) and (G) interleukin 6 (IL-6) mRNA expression levels of mature murine adipocytes cultivated for three days in cell culture media containing either GF or GFS carbohydrate mix, or (H) IL-6 expression in primary murine hepatocytes, as well as (I) TNFa and (J) IL-6 mRNA levels in primary bone marrow derived macrophages, both cell types were pre-cultured for two days in GF or GFS media, were compared between respective groups.” left out, “Data represents mean+/−S.D., n=3)” left out

In the case of O=C(CO)[C@@H](O)[C@H](O)[C@H](O)[C@H](O)CO [sedoheptulose, Sedoheptulose], the “sedoheptulose turnover rates as measured by ADP formation” value [1] was “enhanced”, the “basal TNFa mRNA expression” value ([2]; pre-cultured two days in GFS vs GF media, FIG. 3I) was “blocked” and the “basal IL-6 mRNA expression” value ([2]; pre-cultured two days in GFS vs GF media, FIG. 3J) was “blocked”. For the same molecule, the “basal TNFa cytokine secretion” value ([2]; supernatant over two days, ELISA, GFS vs GF media, FIG. 3K) was “blocked”, the “basal IL-6 cytokine secretion” value ([2]; supernatant over two days, ELISA, GFS vs GF media, FIG. 3L) was “blocked” and the IL-6 expression [3] was “less”. The “reduction of LPS-induced TNFa secretion” value ([4]; 2 hrs after activation, FIG. 3M) was “approximately 40%” and the “LPS-induced IL-6 secretion” value ([4]; 6 hrs after activation, FIG. 3N) was “comparable levels as GF treated macrophages”.
